# Reference: patent US20260232767A1, “INTERLEUKIN-23 RECEPTOR ANTAGONIST PEPTIDES FOR USE IN THE TREATMENT OF PSORIASIS” (Janssen Pharmaceutica NV, priority 2023, published 2026)
# System: subjects with moderate-to-severe plaque psoriasis
# Test: PASI response, Example 2 long-term extension to Week 52
# Type: in vivo, human
# Settings: for Change from Baseline in PASI Total Score, LSMean: MMRM model; for Subjects achieving 100% Improvement at Week 52 (PASI) / Subjects achieving ≥75% Improvement at Week 52 (PASI 75 Response) / Subjects achieving ≥90% Improvement at Week 52 (PASI): non-responder imputation
# Description: Described below is a multicenter, long-term extension (LTE), double-blind, dose-ranging, parallel group interventional study in participants from Example 1 to evaluate the long-term efficacy and safety of the hydrochloride salt of the compound of Formula (I) for the treatment of moderate-to-severe plaque psoriasis. Patients from Example 1 continued to receive the same dose of the compound of Formula (I) for an additional 36-week treatment period with a 4-week safety follow up period after the last administration of the compound of Formula (I). Patients randomized to placebo in Example 1 received the compound of Formula (I) at a dose of 100 mg QD starting at Week 16 of Example 1 (FIG. 21).
# The primary efficacy endpoint is the proportion of participants achieving a PASI 75 response at Week 52, defined as at least a […] reduction from baseline PASI of Example 1. For primary analysis, composite strategy (non-responder imputation) was applied to address intercurrent event #1 (Discontinuation of study intervention due to lack of efficacy or due to an AE of worsening of psoriasis) and […] (initiation of a protocol-prohibited medication or therapy that could improve psoriasis); treatment policy strategy (observed data) was applied to intercurrent event #3 (Discontinuation of study intervention due to other reasons). Participants with missing data after application of ICEs are considered as non-responders.
# Since there was no control arm (after week 16), in this primary analysis, only the proportion of participants who achieved a PASI75 response and its […] confidence interval at Week 52 were summarized for each intervention group.
smiles,measurement,setting,value
"CC(=O)NCCCC[C@@H]1NC(=O)[C@H](Cc2c[nH]c3c(C)cccc23)NC(=O)[C@H]([C@@H](C)O)NC(=O)[C@H](CC(N)=O)NC(=O)[C@@H](NC(C)=O)C(C)(C)SSC(C)(C)[C@@H](C(=O)N[C@@H](Cc2ccc(OCCN)cc2)C(=O)N[C@@H](Cc2ccc3ccccc3c2)C(=O)NC2(C(=O)N[C@@H](CCC(=O)O)C(=O)N[C@@H](CC(N)=O)C(=O)N[C@@H](Cc3cccnc3)C(=O)N(C)CC(N)=O)CCOCC2)NC1=O [IL-23 receptor antagonist peptide, Ac-[Pen]*-N-T-[W(7-Me)]-[Lys(Ac)]-[Pen]*-Phe[4-(2-aminoethoxy)]-[2-Nal]-[THP]-E-N-[3-Pal]-Sarc-NH2 (*[Pen]-[Pen]* formdisulfidebond)]","Change from Baseline in PASI Total Score, Mean","25 mg BID, Week 1",−1.20
same,"Change from Baseline in PASI Total Score, Median","25 mg BID, Week 1",−0.80
same,"Change from Baseline in PASI Total Score, LSMean","25 mg BID, Week 1",−1.4
same,"Change from Baseline in PASI Total Score, Mean","25 mg BID, Week 2",−3.65
same,"Change from Baseline in PASI Total Score, Median","25 mg BID, Week 2",−3.20
same,"Change from Baseline in PASI Total Score, LSMean","25 mg BID, Week 2",−3.8
same,"Change from Baseline in PASI Total Score, Mean","25 mg BID, Week 4",−6.26
same,"Change from Baseline in PASI Total Score, Median","25 mg BID, Week 4",−6.30
same,"Change from Baseline in PASI Total Score, LSMean","25 mg BID, Week 4",−6.7
same,"Change from Baseline in PASI Total Score, Mean","25 mg BID, Week 8",−9.72
same,"Change from Baseline in PASI Total Score, Median","25 mg BID, Week 8",−9.90
same,"Change from Baseline in PASI Total Score, LSMean","25 mg BID, Week 8",−10.2
same,"Change from Baseline in PASI Total Score, Mean","25 mg BID, Week 12",−11.46
same,"Change from Baseline in PASI Total Score, Median","25 mg BID, Week 12",−12.30
same,"Change from Baseline in PASI Total Score, LSMean","25 mg BID, Week 12",−11.9
same,"Change from Baseline in PASI Total Score, Mean","25 mg BID, Week 16",−12.73
same,"Change from Baseline in PASI Total Score, Median","25 mg BID, Week 16",−12.70
same,"Change from Baseline in PASI Total Score, LSMean","25 mg BID, Week 16",−13.0
same,"Change from Baseline in PASI Total Score, Mean","25 mg BID, Week 20",−13.50
same,"Change from Baseline in PASI Total Score, Median","25 mg BID, Week 20",−13.60
same,"Change from Baseline in PASI Total Score, LSMean","25 mg BID, Week 20",−13.7
same,"Change from Baseline in PASI Total Score, Mean","25 mg BID, Week 24",−13.64
same,"Change from Baseline in PASI Total Score, Median","25 mg BID, Week 24",−13.55
same,"Change from Baseline in PASI Total Score, LSMean","25 mg BID, Week 24",−13.5
same,"Change from Baseline in PASI Total Score, Mean","25 mg BID, Week 28",−14.33
same,"Change from Baseline in PASI Total Score, Median","25 mg BID, Week 28",−14.40
same,"Change from Baseline in PASI Total Score, LSMean","25 mg BID, Week 28",−14.5
same,"Change from Baseline in PASI Total Score, Mean","25 mg BID, Week 32",−14.36
same,"Change from Baseline in PASI Total Score, Median","25 mg BID, Week 32",−14.30
same,"Change from Baseline in PASI Total Score, LSMean","25 mg BID, Week 32",−14.6
same,"Change from Baseline in PASI Total Score, Mean","25 mg BID, Week 40",−13.58
same,"Change from Baseline in PASI Total Score, Median","25 mg BID, Week 40",−14.10
same,"Change from Baseline in PASI Total Score, LSMean","25 mg BID, Week 40",−13.9
same,"Change from Baseline in PASI Total Score, Mean","25 mg BID, Week 52",−13.24
same,"Change from Baseline in PASI Total Score, Median","25 mg BID, Week 52",−13.75
same,Subjects achieving PASI 75,"25 mg BID, Week 52",24 (28.5%)
same,"Change from Baseline in PASI Total Score, LSMean","25 mg BID, Week 52",−13.6
same,Subjects achieving 100% Improvement at Week 52 (PASI),"25 mg BID, Week 52",(17.1%)
same,Subjects achieving ≥75% Improvement at Week 52 (PASI 75 Response),"25 mg BID, Week 52",24 (58.5%)
same,Subjects achieving ≥90% Improvement at Week 52 (PASI),"25 mg BID, Week 52",(36.6%)
same,"Change from Baseline in PASI Total Score, Mean","25 mg QD, Week 1",−2.25
same,"Change from Baseline in PASI Total Score, Median","25 mg QD, Week 1",−0.80
same,"Change from Baseline in PASI Total Score, LSMean","25 mg QD, Week 1",−2.4
same,"Change from Baseline in PASI Total Score, Mean","25 mg QD, Week 2",−4.50
same,"Change from Baseline in PASI Total Score, Median","25 mg QD, Week 2",−4.00
same,"Change from Baseline in PASI Total Score, LSMean","25 mg QD, Week 2",−4.5
same,"Change from Baseline in PASI Total Score, Mean","25 mg QD, Week 4",−6.50
same,"Change from Baseline in PASI Total Score, Median","25 mg QD, Week 4",−5.60
same,"Change from Baseline in PASI Total Score, LSMean","25 mg QD, Week 4",−6.7
same,"Change from Baseline in PASI Total Score, Mean","25 mg QD, Week 8",−9.39
same,"Change from Baseline in PASI Total Score, Median","25 mg QD, Week 8",−7.70
same,"Change from Baseline in PASI Total Score, LSMean","25 mg QD, Week 8",−9.5
same,"Change from Baseline in PASI Total Score, Mean","25 mg QD, Week 12",−10.71
same,"Change from Baseline in PASI Total Score, Median","25 mg QD, Week 12",−9.20
same,"Change from Baseline in PASI Total Score, LSMean","25 mg QD, Week 12",−10.8
same,"Change from Baseline in PASI Total Score, Mean","25 mg QD, Week 16",−12.76
same,"Change from Baseline in PASI Total Score, Median","25 mg QD, Week 16",−12.20
same,"Change from Baseline in PASI Total Score, LSMean","25 mg QD, Week 16",−12.0
same,"Change from Baseline in PASI Total Score, Mean","25 mg QD, Week 20",−14.01
same,"Change from Baseline in PASI Total Score, Median","25 mg QD, Week 20",−13.70
same,"Change from Baseline in PASI Total Score, LSMean","25 mg QD, Week 20",−13.2
same,"Change from Baseline in PASI Total Score, Mean","25 mg QD, Week 24",−13.56
same,"Change from Baseline in PASI Total Score, Median","25 mg QD, Week 24",−14.30
same,"Change from Baseline in PASI Total Score, LSMean","25 mg QD, Week 24",−12.8
same,"Change from Baseline in PASI Total Score, Mean","25 mg QD, Week 28",−13.35
same,"Change from Baseline in PASI Total Score, Median","25 mg QD, Week 28",−14.60
same,"Change from Baseline in PASI Total Score, LSMean","25 mg QD, Week 28",−13.3
same,"Change from Baseline in PASI Total Score, Mean","25 mg QD, Week 32",−14.06
same,"Change from Baseline in PASI Total Score, Median","25 mg QD, Week 32",−15.50
same,"Change from Baseline in PASI Total Score, LSMean","25 mg QD, Week 32",−13.6
same,"Change from Baseline in PASI Total Score, Mean","25 mg QD, Week 40",−13.70
same,"Change from Baseline in PASI Total Score, Median","25 mg QD, Week 40",−15.25
same,"Change from Baseline in PASI Total Score, LSMean","25 mg QD, Week 40",−13.1
same,"Change from Baseline in PASI Total Score, Mean","25 mg QD, Week 52",−13.55
same,"Change from Baseline in PASI Total Score, Median","25 mg QD, Week 52",−14.55
same,Subjects achieving PASI 75,"25 mg QD, Week 52",21 (48.8%)
same,"Change from Baseline in PASI Total Score, LSMean","25 mg QD, Week 52",−12.9
same,Subjects achieving 100% Improvement at Week 52 (PASI),"25 mg QD, Week 52",(14.0%)
same,Subjects achieving ≥75% Improvement at Week 52 (PASI 75 Response),"25 mg QD, Week 52",21 (48.8%)
same,Subjects achieving ≥90% Improvement at Week 52 (PASI),"25 mg QD, Week 52",(27.9%)
same,"Change from Baseline in PASI Total Score, Mean","50 mg QD, Week 1",−3.10
same,"Change from Baseline in PASI Total Score, Median","50 mg QD, Week 1",−1.80
same,"Change from Baseline in PASI Total Score, LSMean","50 mg QD, Week 1",−3.1
same,"Change from Baseline in PASI Total Score, Mean","50 mg QD, Week 2",−5.74
same,"Change from Baseline in PASI Total Score, Median","50 mg QD, Week 2",−4.30
same,"Change from Baseline in PASI Total Score, LSMean","50 mg QD, Week 2",−5.7
same,"Change from Baseline in PASI Total Score, Mean","50 mg QD, Week 4",−8.25
same,"Change from Baseline in PASI Total Score, Median","50 mg QD, Week 4",−7.85
same,"Change from Baseline in PASI Total Score, LSMean","50 mg QD, Week 4",−8.2
same,"Change from Baseline in PASI Total Score, Mean","50 mg QD, Week 8",−11.41
same,"Change from Baseline in PASI Total Score, Median","50 mg QD, Week 8",−11.85
same,"Change from Baseline in PASI Total Score, LSMean","50 mg QD, Week 8",−11.3
same,"Change from Baseline in PASI Total Score, Mean","50 mg QD, Week 12",−12.96
same,"Change from Baseline in PASI Total Score, Median","50 mg QD, Week 12",−14.25
same,"Change from Baseline in PASI Total Score, LSMean","50 mg QD, Week 12",−12.8
same,"Change from Baseline in PASI Total Score, Mean","50 mg QD, Week 16",−14.56
